Values joined by “and” are separate entries in the source; they are usually repeats but may differ in a detail not shown here. Identical values can stand only once. Like-named read-outs stand apart in the source and are kept apart here.
Key:
Assay type in all cases: cell-based
MKN45 = assay: Anti-proliferation assay (CellTiter-Glo 2.0), combination index, MKN45
Protocol: (§1) Cell lines were obtained from ATCC or Health Science Research Resources Bank.
(§2) Each cell lines were collected by ordinary method, then suspended in indicated medium containing 10% fetal bovine serum in table 3. The number of cells seeded per well was set to 500 cells/20 μL. […] The concentration of each anti-cancer reagents set to 8 concentrations including 0 nM. After adding the medicine to the cells, the cells were further incubated at 37° C. for 3 days under 5% CO2. Cell survival rates were calculated by adding 20 μL of CellTiter-Glo(registered trademark) 2. 0 (Promega) solution to each well, incubating the cells at room temperature for 10 minutes, and then measuring the chemiluminescence intensity of each well using a plate reader (ARVO).
(§3) A combination index (CI) value at each combined concentration of the medicines was determined.

RT4 = assay: Anti-proliferation assay (CellTiter-Glo 2.0), combination index, RT4
Protocol: as §1, §2, §3

NCI-H358 = assay: Anti-proliferation assay (CellTiter-Glo 2.0), combination index, NCI-H358
Protocol: as §1, §2, §3

[1] = Compound 1 41.2 nmol/L + 5-FU 3330 nmol/L, molar ratio 1:81
[2] = Compound 1 123 nmol/L + 5-FU 10000 nmol/L, molar ratio 1:81
[3] = Compound 1 12.3 nmol/L + Paclitaxel 1.46 nmol/L, molar ratio 1:0.1
[4] = Compound 1 37.0 nmol/L + Paclitaxel 4.39 nmol/L, molar ratio 1:0.1
[5] = Compound 1 111 nmol/L + Paclitaxel 13.2 nmol/L, molar ratio 1:0.1
[6] = Compound 1 333 nmol/L + Paclitaxel 39.5 nmol/L, molar ratio 1:0.1
[7] = Compound 1 1000 nmol/L + Paclitaxel 119 nmol/L, molar ratio 1:0.1
[8] = Compound 1 4.12 nmol/L + Paclitaxel 0.14 nmol/L, molar ratio 1:0.03
[9] = Compound 1 12.3 nmol/L + Paclitaxel 0.41 nmol/L, molar ratio 1:0.03
[10] = Compound 1 37.0 nmol/L + Paclitaxel 1.23 nmol/L, molar ratio 1:0.03
[11] = Compound 1 111 nmol/L + Paclitaxel 3.70 nmol/L, molar ratio 1:0.03
[12] = Compound 1 333 nmol/L + Paclitaxel 11.1 nmol/L, molar ratio 1:0.03
[13] = Compound 1 1000 nmol/L + Paclitaxel 33.3 nmol/L, molar ratio 1:0.03
[14] = Compound 1 4.57 + combination drug 37.0 nmol/L (1:8.1)
[15] = Compound 1 13.7 + combination drug 111 nmol/L (1:8.1)
[16] = Compound 1 41.2 + combination drug 333 nmol/L (1:8.1)
[17] = Compound 1 123 + combination drug 1000 nmol/L (1:8.1)
[18] = Compound 1:combination drug molar ratio 1:8.1
[19] = Compound 1 37.0 + combination drug 4.12 nmol/L (1:0.1)
[20] = Compound 1 111 + combination drug 12.3 nmol/L (1:0.1)
[21] = Compound 1 333 + combination drug 37.0 nmol/L (1:0.1)
[22] = Compound 1 123 + combination drug 556 nmol/L (1:4.5)
[23] = Compound 1 370 + combination drug 1670 nmol/L (1:4.5)
[24] = Compound 1 1110 + combination drug 5000 nmol/L (1:4.5)
[25] = Compound 1 123 + combination drug 3330 nmol/L (1:27)
[26] = Compound 1 370 + combination drug 10000 nmol/L (1:27)

Work on `O=c1[nH]cc(F)c(=O)[nH]1` [Compound 5-FU] yielded a CI (MKN45; [1]) of 0.738, a Fa (MKN45; [1]) of 0.4610 and a CI (MKN45; [2]) of 0.399. For the same molecule, the Fa (MKN45; [2]) was 0.7197 and the Description (MKN45; combination effect, Compound 1 + 5-FU, molar ratio 1:81) was “Synergy (0.3-0.7)”.
With `CC(=O)O[C@H]1C(=O)[C@@]2(C)[C@H]([C@H](OC(=O)c3ccccc3)[C@]3(O)C[C@H](OC(=O)[C@H](O)[C@@H](NC(=O)c4ccccc4)c4ccccc4)C(C)=C1C3(C)C)[C@]1(OC(C)=O)CO[C@@H]1C[C@@H]2O` [Paclitaxel] the CI (MKN45; [3]) was 0.106, the Fa (MKN45; [3]) was 0.4372 and the CI (MKN45; [4]) was 0.222. For the same molecule, the Fa (MKN45; [4]) was 0.5083, the CI (MKN45; [5]) was 0.307 and the Fa (MKN45; [5]) was 0.6577. The CI (MKN45; [6]) was 0.409, the Fa (MKN45; [6]) was 0.7864 and the CI (MKN45; [7]) was 0.957. The Fa (MKN45; [7]) was 0.8179, the CI (RT4; [8]) was 0.690 and the Fa (RT4; [8]) was 0.1066. The CI (RT4; [9]) was 0.828, the Fa (RT4; [9]) was 0.1742 and the CI (RT4; [10]) was 0.386. The Fa (RT4; [10]) was 0.4157, the CI (RT4; [11]) was 0.366 and the Fa (RT4; [11]) was 0.6114. It also gave a CI (RT4; [12]) of 0.371, a Fa (RT4; [12]) of 0.7739 and a CI (RT4; [13]) of 0.681. The Fa (RT4; [13]) was 0.8306 and the Description (RT4; combination effect, Compound 1 + Paclitaxel, molar ratio 1:0.03) was “Synergy (0.3-0.7)”.
For `Cc1ccc(C(=O)Nc2ccc(CN3CCN(C)CC3)c(C(F)(F)F)c2)cc1C#Cc1cnc2cccnn12` [Ponatinib], the CI (NCI-H358) was 0.794 and 0.463 and 0.639.
In the case of `C=CC(=O)Nc1cc(Nc2nccc(-c3cn(C)c4ccccc34)n2)c(OC)cc1N(C)CCN(C)C` [Osimertinib], the CI (RT4; [14]) is reported as 0.844, the Fa (RT4; [14]) is reported as 0.2395 and the CI (RT4; [15]) is reported as 0.453. It also gave a Fa (RT4; [15]) of 0.4891, a CI (RT4; [16]) of 0.326 and a Fa (RT4; [16]) of 0.7067. The CI (RT4; [17]) was 0.550, the Fa (RT4; [17]) was 0.7777 and the “Description (combinatory effect by CI)” value (RT4; [18]) was “Synergy (0.3-0.7)”. For the same molecule, the CI (NCI-H358; [15]) was 0.333, the Fa (NCI-H358; [15]) was 0.2157 and the CI (NCI-H358; [16]) was 0.436. The Fa (NCI-H358; [16]) was 0.4242, the CI (NCI-H358; [17]) was 0.844 and the Fa (NCI-H358; [17]) was 0.5579. For the same molecule, the “Description (combinatory effect by CI)” value (NCI-H358; [18]) was “Synergy (0.3-0.7)”.
With `CC(=O)Nc1cccc(-n2c(=O)n(C3CC3)c(=O)c3c(Nc4ccc(I)cc4F)n(C)c(=O)c(C)c32)c1` [Trametinib] the CI (MKN45; [19]) was 0.358, the Fa (MKN45; [19]) was 0.4047 and the CI (MKN45; [20]) was 0.389. For the same molecule, the Fa (MKN45; [20]) was 0.6614, the CI (MKN45; [21]) was 0.693 and the Fa (MKN45; [21]) was 0.7703. The “Description (combinatory effect by CI)” value (MKN45; Compound 1:combination drug molar ratio 1:0.1) was “Synergy (0.3-0.7)”.
In the case of `CCOc1cc2ncc(C#N)c(Nc3ccc(OCc4ccccn4)c(Cl)c3)c2cc1NC(=O)/C=C/CN(C)C` [Neratinib], the CI (MKN45; [22]) is reported as 0.658, the Fa (MKN45; [22]) is reported as 0.5592 and the CI (MKN45; [23]) is reported as 0.336. The Fa (MKN45; [23]) was 0.8104, the CI (MKN45; [24]) was 0.237 and the Fa (MKN45; [24]) was 0.9240.
For `CS(=O)(=O)CCNCc1ccc(-c2ccc3ncnc(Nc4ccc(OCc5cccc(F)c5)c(Cl)c4)c3c2)o1` [Lapatinib], the CI (MKN45; [25]) was 0.965, the Fa (MKN45; [25]) was 0.6048 and the CI (MKN45; [26]) was 0.497. The Fa (MKN45; [26]) was 0.9171 and the “Description (combinatory effect by CI)” value (MKN45; Compound 1:combination drug molar ratio 1:27) was “Synergy (0.3-0.7)”.
